Values joined by “and” are separate entries in the source; they are usually repeats but may differ in a detail not shown here. Equal values may be shown once.
System: NPC patients
Test: Clinical severity score (CSS) and annual severity increment score (ASIS) in ten NPC patients
Format: in vivo, human
Settings: 4.5 g/day
Excerpt: An NPC patient's severity may be quantified by assigning a clinical severity score (CSS), which assesses various parameters of the disease and gives each parameter a score out of 5 (higher score =greater severity). See Yanjanin et al., “Linear Clinical Progression, Independent of Age of Onset, in Niemann-Pick Disease, Type C,” Am J Med Genet Part B 153B:132-140. In an untreated patient, one can typically predict how the CSS will change over time in an individual, as disease progression appears to be linear. For example, if Patient A moves from a CSS of 8 to a CSS of 12 between month 0 and month 12, it can be predicted that by month 36, the patient will have a CSS of 20. The annual severity increment score (ASIS) quantities the annual rate of change in the CSS, calculated by dividing the CSS of a patient by the patient's age. […] Each year, the patient would be expected to progress by 4 CSS points, such that at 4 years of age, the patient's CSS would be 16. If therapeutic intervention slowed or arrested disease progression, one would expect the patient to have a smaller ASIS score after such therapy than at baseline.
Ten NPC patients were administered acetyl-leucine at 4.5 g/day over long durations. A CSS was determined at baseline, and at various time points, for eye movement, ambulation, speech, swallow, fine motor skills, cognition, memory, and seizures. An overall CSS was calculated at baseline and at each such time point by adding the individual CSS values for each parameter (eye movement, ambulation, etc.).
The ASIS at baseline and each time point was calculated using each patient's CSS and age at the time of assessment. The overall ASIS for each patient at each time point is shown below in Table 15.

[1] = one line per patient, days per Table 5, listed as acetyl-leucine
[2] = one line per patient, score out of 5, listed as acetyl-leucine

Structure (SMILES): CC(=O)NC(CC(C)C)C(=O)O (racemic) [acetyl-DL-leucine]
- CSS overall, Time Point 2 (one line per patient (Patient I.D 1-10), days per Table 5, listed as acetyl-leucine): 33 and 12 (3×) and 13 and 23 and 19 and 22 and 11 (2×)
- CSS overall, Time Point 3 [1]: 33 and 11 (2×) and 10 (2×) and 12 and 21 (2×) and 19
- CSS overall, Time Point 4 [1]: 33 and 12 and 21
- CSS eye movement, Time Point 4 (one line per patient, score out of 5): 3
- CSS ambulation, Time Point 2 [2]: 5 and 1 (3×) and 2 (5×) and 4
- CSS ambulation, Time Point 4 [2]: 5 and 1 and 2
- CSS cognition, Time Point 2 [2]: 5 and 3 (5×) and 4 (3×) and 2
- CSS cognition, Time Point 3 [2]: 5 and 3 (5×) and 4 (3×)
- CSS cognition, Time Point 4 [2]: 5 and 3 and 4
- CSS eye movement, Time Point 2 [2]: 3 (9×) and 2
- CSS eye movement, Time Point 3 [2]: 3 (7×) and 2 (2×)
- CSS fine motor skills, Time Point 2 [2]: 5 and 1 (6×) and 4 (2×) and 2
- CSS fine motor skills, Time Point 3 [2]: 5 and 1 (5×) and 4 (2×) and 2
- CSS fine motor skills, Time Point 4 [2]: 5 and 1 and 4
- CSS memory, Time Point 2 [2]: 4 (3×) and 1 (5×) and 3 and 0
- CSS memory, Time Point 3 [2]: 4 (2×) and 0 (2×) and 1 (3×) and 3 (2×)
- CSS memory, Time Point 4 [2]: 4 and 1 and 3
- CSS seizures, Time Point 2 [2]: 5 and 0 (9×)
- CSS seizures, Time Point 3 [2]: 5 and 0 (8×)
- CSS seizures, Time Point 4 [2]: 5 and 0 (2×)
- CSS speech, Time Point 2 [2]: 2 (4×) and 1 (6×)
- CSS speech, Time Point 3 [2]: 2 (3×) and 1 (6×)
- CSS speech, Time Point 4 [2]: 2 (2×) and 1
- CSS swallow, Time Point 2 [2]: 4 and 2 (5×) and 3 (3×) and 0
- CSS swallow, Time Point 3 [2]: 4 and 2 (4×) and 3 (3×) and 0
- CSS swallow, Time Point 4 [2]: 4 and 2 and 3
- Change in overall CSS over the course of the experiment (ten NPC patients): none of the ten patients showed an overall increase in CSS

From US12433863B2, “Pharmaceutical compositions and uses directed to lysosomal storage disorders” (INTRABIO LIMITED, priority 2016, dated 2025)
